What was measured:
[1] = Concentration of free hydroxyproline in serum and skin after oral intake; type: in vivo; settings: HOS:HR-1 mouse, 500 mg/kg oral, 0.5-24 hours, FIGS. 1 and 2
Method: HOS:HR-1 mouse (seven-week-old female; purchased from Japan SLC, Inc.) was used in the test.
Trans-4-hydroxy-L-proline (Kyowa Hakko Kogyo Co., Ltd.; hereinafter referred to as hydroxyproline) was dissolved in purified water at a concentration of 50 mg/ml, and the resulting solution was orally administered in an amount of 500 mg/kg. After 0.5, 1, 2, 4, 6 and 24 hours, blood was collected from the abdominal vena cava of the mouse under diethyl ether inhalation anesthesia to obtain a serum. After cervical dislocation, dorsal skin was collected, subjected to freeze-disruption and then to extraction with water to obtain a skin extract.
The amount of hydroxyproline in the sera and the skin extract was analyzed by high performance liquid chromatography using ODS column ([…]×15 cm, GL Sciences Inc.) after protein was removed with an equal amount of 2% (w/v) sulfosalicylic acid and the second amino group was labeled with NBD-Cl (4-chloro-7-nitro-2,1,3-benzoxadiazole, Tokyo Chemical Industry Co., Ltd.).

[2] = test system: synthesis of collagen in the skin; test: Subcutaneous sponge implant: amount of hydroxyproline as index of collagen-synthesizing and tissue-restoring ability; type: in vivo; settings: rats, sponge pieces, Student's t-test p < 0.05
Method: F344/DuCrlCrlj rats (12 heads, 29-week-old male; purchased from Charles River Laboratories Japan, Inc.) were divided into 2 groups each consisting of 6 rats.
The rats of Group 1 and Group 2 were fed with the feed of Example 5 and the control feed of Comparative Example 1, respectively, ad libitum for 7 days. The abdominal area of each rat was shaved with clippers under anesthesia by intraperitoneal administration of pentobarbital, and cut sponge pieces (ca. 150 mg, 2 mm thick, ca. 38 mm×12 mm; Ivalon, Inc.) were inserted into two spots under the skin, followed by suturing. After further feeding for 7 days, the sponge pieces were taken out.
The sponge pieces were subjected to reaction using 6N hydrochloric acid (20 ml/piece) at 110° C. for 18 hours to decompose them with acid and heat. The products obtained by decomposition with acid and heat were diluted 10 times with 1M borate buffer (pH 10.6), and the amount of hydroxyproline was measured in the same manner as in Test Example 1 and was regarded as an index of the collagen-synthesizing ability and tissue-restoring ability of a rat.
The values were shown in terms of average value ±standard deviation and a test of statistical significance was performed by Student's t-test.

skin wrinkles or sagging = test: Parallel-group double-blind test, 10-level self-rating of facial skin condition; type: in vivo, human; settings: oral ingestion, 4 weeks, conclusion from Table 2
Method: Females aged 47 to 65 years (21 subjects) who chronically suffer from dry skin and rough skin were divided into two groups. After a 2-week observation period, Group 1 (9 subjects) and Group 2 (12 subjects) ingested hard capsules of Example 6 and hard capsules of Comparative Example 2, respectively, for 4 weeks (2 capsules each morning and evening). The test was carried out by parallel-group double-blind test. At the start and the end of the period of ingesting hard capsules, the following questions 1 to 3 were addressed to the subjects (answer “1”: level 1, answer “10”: level 10) and the skin conditions of the subjects were evaluated by a 10-level rating system. • Question 1: Evaluate the level of wrinkles on your face.
1: Wrinkles all over the surface
10: No wrinkles • Question 2: Evaluate the elasticity of the skin of your face.
10: Extreme elasticity • Question 3: Evaluate the firmness of the skin of your face.
The improvement rate (%) was calculated according to Equation 1. Improvement rate (%)=average value of levels after intake/average value of levels before intake×100 [Equation 1]

## O=C(O)[C@@H]1C[C@@H](O)CN1 [hydroxyproline, Trans-4-hydroxy-L-proline]
[1]
  movement of orally ingested hydroxyproline into blood and skin (free hydroxyproline in serum and skin extract): quickly moves into blood and skin
[2]
  amount of hydroxyproline derived from heat-decomposed collagen (versus control feed): significantly increased
Skin wrinkles or sagging
  wrinkles and sagging of the face: improved

Source: patent publication US9433605B2, “Method for promoting synthesis of tissue collagen” (Kyowa Hakko Bio Co., Ltd., priority 2006, dated 2016)
